A short description of test [1]: viability loss in A549 lung cancer cells – cell-based, CellTiter-Glo luminescence, dry powder, set 3, cytotoxicity control, dose response (AID 743146). As to conditions: A549 viability, CellTiter-Glo ATP luminescence, 72 h; at 26 µM (top of the series). Background: Cellular ATP, detected with luciferase, serves as a proxy for viable cell number.
Test [2] has as its system A549 viability, CellTiter-Glo ATP luminescence, 72 h. The description is as above.

SMILES strings stand for the structures. The source made the active and inactive calls.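 The calls were made as follows: active = fitted half-maximal potency for cell killing at or below the highest valid dose tested for that sample; inconclusive = flat curve with 30 to 70% viability loss, or unreliable fit; inactive = the rest.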

On to `O=C(CCNC(=O)c1ccccc1)N[C@@H]1CCCc2ccccc21`, for which, in test [1], the activity change, negative = cytotoxicity is -10.3% (inactive).

Regarding `O=C(CCNC(=O)c1ccccc1Cl)NC1CCCc2ccccc21` (stereo not drawn), the activity change, negative = cytotoxicity in test [1] was -2% (inactive).

With `COc1ccccc1C(C)NC(=O)CCNC(=O)c1ccc(Cl)cc1` (stereo not drawn), the activity change, negative = cytotoxicity in test [1] is 10% (inactive).

With `O=C(CNC(=O)c1ccc(OC(F)(F)F)cc1)N[C@@H]1CCCc2ccccc21`, the activity change, negative = cytotoxicity in test [1] is 8.39% (inactive).

For `CC(C)(C)OC(=O)NCCC(=O)N[C@H]1CCCc2ccccc21`, in test [1], the activity change, negative = cytotoxicity is -0.649% (inactive).

On to `O=C(Cc1ccc(Cl)cc1)NCCC(=O)N[C@@H]1CCCc2ccccc21`, for which the activity change, negative = cytotoxicity in test [1] is -2.28% (inactive).

For the molecule `CN(C(=O)CCNC(=O)c1ccc(F)cc1F)C1CCCc2ccccc21` (stereo not drawn), in test [1], the activity change, negative = cytotoxicity is 8.93% (inactive).

Turning to `CC(CC(=O)NC1CCCc2ccccc21)NC(=O)c1ccccc1` (stereo not drawn), the activity change, negative = cytotoxicity in test [1] was 0.372% (inactive).

For `O=C(CCNC(=O)c1ccc(Cl)cc1)N[C@@H]1CCc2ccccc21`, in test [1], the activity change, negative = cytotoxicity was 0.571% (inactive).

Consider `CC(=O)NCCC(=O)N[C@@H]1CCCc2ccccc21`, for which the activity change, negative = cytotoxicity in test [1] is 4.17% (inactive).

Turning to `CC(C)(C)OC(=O)NCCC(=O)N[C@@H]1CCCc2ccccc21`, the activity change, negative = cytotoxicity in test [1] was 6.05% (inactive).

For the molecule `O=C(NC1CCOc2ccccc21)C1CCCN(C(=O)c2ccc(Cl)cc2)C1` (stereo not drawn), in test [1], the activity change, negative = cytotoxicity was 11.1% (inactive).

With `CC(c1ccccc1)N(C)C(=O)CCNC(=O)c1ccc(Cl)cc1` (stereo not drawn), the activity change, negative = cytotoxicity in test [1] was 14% (inactive).

As for `CC(NC(=O)CCNC(=O)c1ccc(Cl)cc1)c1ccc(F)cc1` (stereo not drawn), the activity change, negative = cytotoxicity in test [1] was 1.56% (inactive).

`O=C(CNC(=O)c1ccc(Cl)c(Cl)c1)N[C@@H]1CCCc2ccccc21`: in test [1], the activity change, negative = cytotoxicity is -1.02% (inactive).

As for `CC(CC(=O)N(C)C1CCCc2ccccc21)NC(=O)c1ccccc1` (stereo not drawn), in test [1], the activity change, negative = cytotoxicity is -7.34% (inactive).

On to `O=C(CCCNC(=O)c1ccc(OC(F)(F)F)cc1)N[C@@H]1CCCc2ccccc21`, for which, in test [1], the activity change, negative = cytotoxicity was 4.74% (inactive).

For the molecule `O=C(CCNC(=O)c1ccc(Cl)cc1)NC1CCCc2ccccc21` (stereo not drawn), the AC50 (in general, the midpoint of the concentration-response curve, whichever way the signal moves) in test [2] was 26 µM.

`CC(NC(=O)C1CCCN(C(=O)c2ccc(Cl)cc2)C1)c1ccccc1` (stereo not drawn): in test [1], the activity change, negative = cytotoxicity was 5.97% (inactive).

As to `O=C(NC1CCc2ccccc21)C1CCCN(C(=O)c2ccc(Cl)cc2)C1` (stereo not drawn), in test [1], the activity change, negative = cytotoxicity is -1.86% (inactive).

As for `O=C(CCn1cnc2ccccc2c1=O)NC1CCCc2ccccc21` (stereo not drawn), in test [1], the activity change, negative = cytotoxicity is -2.5% (inactive).

Regarding `Cc1cccc(C(=O)NCCC(=O)NC2CCCc3ccccc32)c1` (stereo not drawn), the activity change, negative = cytotoxicity in test [1] was 9.52% (inactive).

`COc1ccccc1C(=O)NCCC(=O)NC1CCCc2ccccc21` (stereo not drawn): the activity change, negative = cytotoxicity in test [1] was 5.71% (inactive).

With `O=C(CNC(=O)c1ccc(C(F)(F)F)cc1)N[C@@H]1CCCc2ccccc21`, in test [1], the activity change, negative = cytotoxicity was 11% (inactive).

`O=C(CCNC(=O)c1ccc(Cl)cc1)NC1CCCCC1`: the activity change, negative = cytotoxicity in test [1] was 8.46% (inactive).

In the case of `NCCC(=O)N[C@@H]1CCCc2ccccc21`, in test [1], the activity change, negative = cytotoxicity is 11.5% (inactive).

Take `O=C(CCNC(=O)c1ccc(F)cc1)N[C@@H]1CCCc2ccccc21`: in test [1], the activity change, negative = cytotoxicity is -10.3% (inactive).

In the case of `CC(NC(=O)CCNC(=O)c1ccc(Cl)cc1)c1ccc2c(c1)OCO2` (stereo not drawn), the activity change, negative = cytotoxicity in test [1] was 7.31% (inactive).

Take `O=C(CNC(=O)c1ccc(Cl)cc1)N[C@@H]1CCCc2ccccc21`: the activity change, negative = cytotoxicity in test [1] is -3.21% (inactive).

Consider `O=C(CCCNC(=O)c1ccc(Cl)c(Cl)c1)N[C@@H]1CCCc2ccccc21`, for which the activity change, negative = cytotoxicity in test [1] is -2.59% (inactive).

Consider `C[C@@H](NC(=O)CCNC(=O)c1ccc(Cl)cc1)c1ccccc1`, for which the activity change, negative = cytotoxicity in test [1] is -3.03% (inactive).

Regarding `O=C(CCCNC(=O)c1ccc(C(F)(F)F)cc1)N[C@@H]1CCCc2ccccc21`, the activity change, negative = cytotoxicity in test [1] is -7.77% (inactive).

Regarding `O=C(CCCNC(=O)c1ccc(Cl)cc1)N[C@@H]1CCCc2ccccc21`, the activity change, negative = cytotoxicity in test [1] is -5.3% (inactive).
